Measurements reported in ChEMBL document CHEMBL5291721, “A preclinical secondary pharmacology resource illuminates target-adverse drug reaction associations of marketed drugs” (Nat Commun, 2023).

Legend:
[1] = biological target: 3',5'-cyclic-AMP phosphodiesterase 4D (Homo sapiens, UniProt Q08499); type: functional
[2] = biological target: T1, Mu-type opioid receptor (Homo sapiens, UniProt P35372)
[3] = biological target: Cannabinoid receptor 1 (Homo sapiens, UniProt P21554); type: functional, cell-based
Cannabinoid receptor 1, sequence (P21554 whole entry): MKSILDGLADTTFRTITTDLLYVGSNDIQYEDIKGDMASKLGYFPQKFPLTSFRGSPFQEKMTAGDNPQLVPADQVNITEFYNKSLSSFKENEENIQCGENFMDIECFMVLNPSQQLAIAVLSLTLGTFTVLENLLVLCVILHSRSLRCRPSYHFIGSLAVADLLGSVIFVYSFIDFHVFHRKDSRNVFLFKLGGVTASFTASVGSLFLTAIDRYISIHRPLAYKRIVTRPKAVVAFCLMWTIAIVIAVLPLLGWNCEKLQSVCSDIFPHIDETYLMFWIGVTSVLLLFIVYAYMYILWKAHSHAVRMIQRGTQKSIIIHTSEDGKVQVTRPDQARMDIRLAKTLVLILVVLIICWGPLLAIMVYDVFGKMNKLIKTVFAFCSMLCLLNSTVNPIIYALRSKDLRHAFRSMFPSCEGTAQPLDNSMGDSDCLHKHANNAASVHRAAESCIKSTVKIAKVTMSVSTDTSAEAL

[4] = biological target: T2, Endothelin-1 receptor (Homo sapiens, UniProt P25101)
T2 sequence (P25101 whole entry): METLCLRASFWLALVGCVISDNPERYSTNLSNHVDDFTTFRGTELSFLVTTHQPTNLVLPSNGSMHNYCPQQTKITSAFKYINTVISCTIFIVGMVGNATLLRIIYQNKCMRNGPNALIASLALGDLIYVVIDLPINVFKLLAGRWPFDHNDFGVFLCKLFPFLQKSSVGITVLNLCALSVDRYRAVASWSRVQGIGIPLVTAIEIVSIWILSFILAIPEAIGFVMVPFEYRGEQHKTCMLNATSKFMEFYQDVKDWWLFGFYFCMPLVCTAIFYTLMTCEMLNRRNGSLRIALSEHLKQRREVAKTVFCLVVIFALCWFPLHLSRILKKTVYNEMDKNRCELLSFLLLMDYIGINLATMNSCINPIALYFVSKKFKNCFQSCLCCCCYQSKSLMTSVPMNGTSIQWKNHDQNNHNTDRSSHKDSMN

[5] = biological target: D(1A) dopamine receptor (Homo sapiens, UniProt P21728); type: functional, cell-based
D(1A) dopamine receptor, sequence (P21728 whole entry): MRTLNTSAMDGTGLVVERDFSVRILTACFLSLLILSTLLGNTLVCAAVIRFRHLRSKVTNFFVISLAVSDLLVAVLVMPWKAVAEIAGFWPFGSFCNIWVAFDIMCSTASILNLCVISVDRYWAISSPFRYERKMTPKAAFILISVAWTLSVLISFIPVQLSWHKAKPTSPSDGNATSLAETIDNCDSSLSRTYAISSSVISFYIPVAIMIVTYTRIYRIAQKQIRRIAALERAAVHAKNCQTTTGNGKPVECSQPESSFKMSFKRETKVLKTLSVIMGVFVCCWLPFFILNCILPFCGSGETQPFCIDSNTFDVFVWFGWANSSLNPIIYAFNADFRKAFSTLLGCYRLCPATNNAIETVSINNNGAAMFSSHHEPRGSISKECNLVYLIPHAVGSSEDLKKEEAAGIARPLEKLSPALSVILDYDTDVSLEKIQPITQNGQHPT

[6] = biological target: T3, Progesterone receptor (Homo sapiens, UniProt P06401); type: functional
T3 sequence (P06401 whole entry): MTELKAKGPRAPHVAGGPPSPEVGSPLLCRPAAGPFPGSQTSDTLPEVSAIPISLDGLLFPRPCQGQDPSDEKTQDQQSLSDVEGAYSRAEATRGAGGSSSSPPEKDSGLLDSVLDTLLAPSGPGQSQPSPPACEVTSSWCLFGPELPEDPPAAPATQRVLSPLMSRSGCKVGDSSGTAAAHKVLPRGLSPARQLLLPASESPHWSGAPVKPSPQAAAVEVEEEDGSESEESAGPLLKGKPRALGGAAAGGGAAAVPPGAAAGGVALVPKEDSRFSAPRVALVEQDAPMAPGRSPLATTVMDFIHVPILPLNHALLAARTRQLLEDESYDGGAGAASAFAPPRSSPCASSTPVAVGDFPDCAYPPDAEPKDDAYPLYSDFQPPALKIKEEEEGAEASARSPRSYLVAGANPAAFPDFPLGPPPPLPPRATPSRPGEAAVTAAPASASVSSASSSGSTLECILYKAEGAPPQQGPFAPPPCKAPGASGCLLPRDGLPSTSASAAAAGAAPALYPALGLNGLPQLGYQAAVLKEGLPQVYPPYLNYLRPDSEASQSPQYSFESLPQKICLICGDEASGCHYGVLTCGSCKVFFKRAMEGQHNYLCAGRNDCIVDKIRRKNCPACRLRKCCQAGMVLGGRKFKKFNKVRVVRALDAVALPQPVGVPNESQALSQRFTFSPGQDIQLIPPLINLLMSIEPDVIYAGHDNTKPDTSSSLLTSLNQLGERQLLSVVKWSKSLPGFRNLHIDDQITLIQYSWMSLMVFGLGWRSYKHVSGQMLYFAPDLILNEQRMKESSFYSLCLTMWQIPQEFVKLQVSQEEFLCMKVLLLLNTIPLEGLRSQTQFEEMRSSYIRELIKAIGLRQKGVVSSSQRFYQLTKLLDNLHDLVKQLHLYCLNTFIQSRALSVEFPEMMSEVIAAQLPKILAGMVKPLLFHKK

[7] = biological target: Gamma-aminobutyric acid receptor subunit alpha-1/alpha-2/beta-2/gamma-2 (Homo sapiens, UniProt P14867+P18507+P47869+P47870); type: functional, cell-based
Gamma-aminobutyric acid receptor subunit alpha-1/alpha-2/beta-2/gamma-2, sequence (P14867 whole entry): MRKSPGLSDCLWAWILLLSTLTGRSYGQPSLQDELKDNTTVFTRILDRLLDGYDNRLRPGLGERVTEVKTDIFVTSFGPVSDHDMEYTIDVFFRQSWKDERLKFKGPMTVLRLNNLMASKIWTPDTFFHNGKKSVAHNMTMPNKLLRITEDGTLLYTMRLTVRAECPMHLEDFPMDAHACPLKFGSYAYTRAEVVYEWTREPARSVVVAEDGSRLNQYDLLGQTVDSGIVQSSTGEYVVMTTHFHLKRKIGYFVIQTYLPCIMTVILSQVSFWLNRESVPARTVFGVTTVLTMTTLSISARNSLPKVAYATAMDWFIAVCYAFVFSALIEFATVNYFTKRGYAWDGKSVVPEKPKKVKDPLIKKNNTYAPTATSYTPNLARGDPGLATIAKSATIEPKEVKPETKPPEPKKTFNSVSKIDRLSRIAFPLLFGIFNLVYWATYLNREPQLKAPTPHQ
Gamma-aminobutyric acid receptor subunit alpha-1/alpha-2/beta-2/gamma-2, sequence (P47870 whole entry): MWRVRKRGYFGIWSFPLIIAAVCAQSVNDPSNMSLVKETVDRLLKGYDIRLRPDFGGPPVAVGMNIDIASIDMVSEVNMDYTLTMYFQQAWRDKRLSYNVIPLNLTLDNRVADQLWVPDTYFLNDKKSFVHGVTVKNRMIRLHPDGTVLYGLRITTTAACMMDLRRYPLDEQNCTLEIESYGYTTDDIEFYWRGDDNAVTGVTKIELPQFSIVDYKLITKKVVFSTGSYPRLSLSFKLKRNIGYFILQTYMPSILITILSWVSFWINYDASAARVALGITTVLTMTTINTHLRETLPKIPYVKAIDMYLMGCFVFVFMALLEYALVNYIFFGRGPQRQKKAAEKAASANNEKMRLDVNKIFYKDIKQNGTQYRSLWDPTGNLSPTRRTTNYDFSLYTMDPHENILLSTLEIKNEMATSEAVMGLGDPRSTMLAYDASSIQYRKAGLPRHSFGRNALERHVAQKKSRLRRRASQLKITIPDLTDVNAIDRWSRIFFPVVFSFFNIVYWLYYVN
Gamma-aminobutyric acid receptor subunit alpha-1/alpha-2/beta-2/gamma-2, sequence (P18507 whole entry): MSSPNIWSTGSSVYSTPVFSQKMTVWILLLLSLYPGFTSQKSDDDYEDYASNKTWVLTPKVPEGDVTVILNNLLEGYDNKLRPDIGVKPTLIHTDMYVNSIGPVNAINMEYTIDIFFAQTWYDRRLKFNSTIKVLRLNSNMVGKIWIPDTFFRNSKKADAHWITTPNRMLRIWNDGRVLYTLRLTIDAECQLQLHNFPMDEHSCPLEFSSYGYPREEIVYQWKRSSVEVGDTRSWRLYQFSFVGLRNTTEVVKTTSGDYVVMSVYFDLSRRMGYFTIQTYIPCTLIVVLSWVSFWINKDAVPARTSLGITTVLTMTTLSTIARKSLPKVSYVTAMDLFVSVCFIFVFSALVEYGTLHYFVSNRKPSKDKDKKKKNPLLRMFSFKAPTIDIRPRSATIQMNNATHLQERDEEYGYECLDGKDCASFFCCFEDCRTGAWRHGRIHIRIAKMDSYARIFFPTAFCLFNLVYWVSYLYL
Gamma-aminobutyric acid receptor subunit alpha-1/alpha-2/beta-2/gamma-2, sequence (P47869 whole entry): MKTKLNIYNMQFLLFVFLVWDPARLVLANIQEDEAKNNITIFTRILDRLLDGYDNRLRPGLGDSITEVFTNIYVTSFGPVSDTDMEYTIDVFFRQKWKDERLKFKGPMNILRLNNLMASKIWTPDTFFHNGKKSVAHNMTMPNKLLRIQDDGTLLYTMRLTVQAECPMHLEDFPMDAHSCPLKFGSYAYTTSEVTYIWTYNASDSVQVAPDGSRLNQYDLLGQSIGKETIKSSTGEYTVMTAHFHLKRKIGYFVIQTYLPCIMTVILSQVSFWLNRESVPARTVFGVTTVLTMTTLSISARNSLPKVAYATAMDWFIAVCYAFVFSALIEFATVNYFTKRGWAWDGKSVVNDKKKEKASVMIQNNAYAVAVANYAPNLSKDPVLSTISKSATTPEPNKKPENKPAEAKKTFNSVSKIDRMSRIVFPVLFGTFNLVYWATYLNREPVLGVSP

[8] = biological target: T4, Alpha-2A adrenergic receptor (Homo sapiens, UniProt P08913); type: functional, cell-based
T4 sequence (P08913 whole entry): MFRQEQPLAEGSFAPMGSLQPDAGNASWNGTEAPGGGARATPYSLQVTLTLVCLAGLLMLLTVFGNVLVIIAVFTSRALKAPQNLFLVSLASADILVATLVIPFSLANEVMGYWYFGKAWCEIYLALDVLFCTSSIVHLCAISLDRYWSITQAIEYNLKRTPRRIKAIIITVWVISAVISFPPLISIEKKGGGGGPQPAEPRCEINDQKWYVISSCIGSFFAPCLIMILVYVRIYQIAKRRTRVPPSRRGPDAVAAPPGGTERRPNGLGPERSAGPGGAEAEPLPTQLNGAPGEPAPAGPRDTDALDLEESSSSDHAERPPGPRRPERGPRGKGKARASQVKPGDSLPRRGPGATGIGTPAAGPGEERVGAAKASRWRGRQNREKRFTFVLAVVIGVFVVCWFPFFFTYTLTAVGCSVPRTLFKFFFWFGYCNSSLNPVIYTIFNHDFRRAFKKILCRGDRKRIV

[9] = biological target: T1, Mu-type opioid receptor; experiment: biochemical; type: functional
[10] = biological target: T3, Progesterone receptor
[11] = biological target: Beta-2 adrenergic receptor (Homo sapiens, UniProt P07550)
Beta-2 adrenergic receptor, sequence (P07550 whole entry): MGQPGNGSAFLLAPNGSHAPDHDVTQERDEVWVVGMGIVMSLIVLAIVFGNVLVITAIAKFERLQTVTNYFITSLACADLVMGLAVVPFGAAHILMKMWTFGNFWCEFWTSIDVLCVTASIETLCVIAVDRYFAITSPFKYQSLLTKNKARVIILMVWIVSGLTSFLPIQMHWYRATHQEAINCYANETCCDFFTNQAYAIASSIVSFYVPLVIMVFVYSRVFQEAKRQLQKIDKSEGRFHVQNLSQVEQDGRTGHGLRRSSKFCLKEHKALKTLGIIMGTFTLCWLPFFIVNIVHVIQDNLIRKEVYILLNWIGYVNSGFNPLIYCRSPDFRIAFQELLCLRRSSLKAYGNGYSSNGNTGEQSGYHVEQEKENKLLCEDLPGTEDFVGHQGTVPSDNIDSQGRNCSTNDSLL

[12] = biological target: Voltage-dependent N-type calcium channel subunit alpha-1B (Rattus norvegicus, UniProt Q02294); type: functional
[13] = biological target: 5-hydroxytryptamine receptor 2B (Homo sapiens, UniProt P41595)
5-hydroxytryptamine receptor 2B, sequence (P41595 whole entry): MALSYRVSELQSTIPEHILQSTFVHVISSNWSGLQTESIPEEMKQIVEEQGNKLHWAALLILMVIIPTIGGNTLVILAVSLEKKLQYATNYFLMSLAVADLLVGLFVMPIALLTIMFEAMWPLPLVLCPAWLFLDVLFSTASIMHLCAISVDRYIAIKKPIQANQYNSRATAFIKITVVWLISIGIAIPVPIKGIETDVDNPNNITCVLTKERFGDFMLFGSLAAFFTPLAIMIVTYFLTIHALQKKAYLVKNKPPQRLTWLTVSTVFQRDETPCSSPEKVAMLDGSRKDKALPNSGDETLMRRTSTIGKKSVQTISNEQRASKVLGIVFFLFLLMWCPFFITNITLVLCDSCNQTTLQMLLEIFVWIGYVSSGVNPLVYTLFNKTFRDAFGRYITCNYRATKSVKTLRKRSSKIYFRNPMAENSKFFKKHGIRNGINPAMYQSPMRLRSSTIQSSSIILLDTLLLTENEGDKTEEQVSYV

[14] = biological target: T5, B2 bradykinin receptor (Homo sapiens, UniProt P30411)
T5 sequence (P30411 whole entry): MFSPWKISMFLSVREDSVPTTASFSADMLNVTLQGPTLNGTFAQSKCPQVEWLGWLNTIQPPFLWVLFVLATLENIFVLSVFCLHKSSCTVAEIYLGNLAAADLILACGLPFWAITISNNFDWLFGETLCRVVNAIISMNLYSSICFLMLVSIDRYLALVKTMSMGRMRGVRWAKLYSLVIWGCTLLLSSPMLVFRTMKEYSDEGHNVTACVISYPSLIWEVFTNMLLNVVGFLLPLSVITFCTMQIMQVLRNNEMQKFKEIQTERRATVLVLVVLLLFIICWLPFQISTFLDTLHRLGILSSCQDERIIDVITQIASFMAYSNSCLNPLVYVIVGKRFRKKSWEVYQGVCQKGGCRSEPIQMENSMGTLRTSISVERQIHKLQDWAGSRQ
Note: assay procedure not described here.

T1 sequence (P35372 whole entry): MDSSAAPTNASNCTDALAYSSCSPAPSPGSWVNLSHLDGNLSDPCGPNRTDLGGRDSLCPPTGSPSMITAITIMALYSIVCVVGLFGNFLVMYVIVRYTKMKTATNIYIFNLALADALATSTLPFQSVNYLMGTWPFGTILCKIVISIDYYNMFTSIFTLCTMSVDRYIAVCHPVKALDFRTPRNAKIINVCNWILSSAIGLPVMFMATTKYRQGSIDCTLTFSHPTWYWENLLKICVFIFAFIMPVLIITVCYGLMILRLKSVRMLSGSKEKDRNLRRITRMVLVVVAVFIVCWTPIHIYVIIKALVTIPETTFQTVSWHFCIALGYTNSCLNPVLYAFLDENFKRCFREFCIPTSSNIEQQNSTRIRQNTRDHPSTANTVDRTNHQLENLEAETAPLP
3',5'-cyclic-AMP phosphodiesterase 4D, sequence (Q08499 whole entry): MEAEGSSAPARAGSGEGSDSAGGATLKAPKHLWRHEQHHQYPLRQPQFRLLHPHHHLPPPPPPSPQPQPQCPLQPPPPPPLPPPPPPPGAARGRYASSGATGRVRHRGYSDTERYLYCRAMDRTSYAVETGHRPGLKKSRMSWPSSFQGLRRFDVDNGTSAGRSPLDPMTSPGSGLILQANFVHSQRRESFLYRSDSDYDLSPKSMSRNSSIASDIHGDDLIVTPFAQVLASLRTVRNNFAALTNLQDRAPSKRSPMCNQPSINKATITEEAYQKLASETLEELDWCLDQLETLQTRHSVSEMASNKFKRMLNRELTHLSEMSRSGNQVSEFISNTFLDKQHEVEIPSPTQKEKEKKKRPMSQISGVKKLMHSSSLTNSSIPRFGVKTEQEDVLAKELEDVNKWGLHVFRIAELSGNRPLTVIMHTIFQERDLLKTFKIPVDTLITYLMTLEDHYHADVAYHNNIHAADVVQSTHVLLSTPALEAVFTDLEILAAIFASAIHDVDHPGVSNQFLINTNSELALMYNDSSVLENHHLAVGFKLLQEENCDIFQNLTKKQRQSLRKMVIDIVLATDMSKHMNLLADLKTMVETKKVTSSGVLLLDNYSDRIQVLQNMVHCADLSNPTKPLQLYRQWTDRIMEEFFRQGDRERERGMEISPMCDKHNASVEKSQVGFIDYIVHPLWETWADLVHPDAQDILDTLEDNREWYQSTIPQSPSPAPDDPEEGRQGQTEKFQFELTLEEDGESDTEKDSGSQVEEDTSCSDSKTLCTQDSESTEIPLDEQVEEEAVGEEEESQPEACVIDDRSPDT

| SMILES | AC50 [1] [µM] | AC50 [2] [µM] | AC50 [3] [µM] | AC50 [4] [µM] | AC50 [5] [µM] | AC50 [6] [µM] | AC50 [7] [µM] | AC50 [8] [µM] | AC50 [9] [µM] | AC50 [10] [µM] | AC50 [11] [µM] | AC50 [12] [µM] | AC50 [13] [µM] | AC50 [14] [µM] |
| --- | --- | --- | --- | --- | --- | --- | --- | --- | --- | --- | --- | --- | --- | --- |
| CC(=N)N1CC[C@H](SC2=C(C(=O)O)N3C(=O)[C@H]([C@@H](C)O)[C@H]3C2)C1 | > 300 | > 300 | > 300 | > 300 | > 300 | > 300 | > 2400 | > 300 |  |  |  |  |  |  |
| CC1(C)S[C@@H]2[C@H](NC(=O)[C@H](N)c3ccc(O)cc3)C(=O)N2[C@H]1C(=O)O [AMOXICILLIN] | > 30 | > 10 |  | > 30 | > 30 | > 30 |  | > 30 | > 30 | > 30 | > 30 | > 10 | > 10 | > 30 |
| CO/N=C(\C(=O)N[C@@H]1C(=O)N2C(C(=O)O)=C(COC(N)=O)CS[C@H]12)c1ccco1 [CEFUROXIME] | > 30 |  | > 30 | > 30 | > 30 |  | > 30 | > 30 | > 30 |  |  |  |  | > 30 |
| [H]/N=C(\N/C(=N/[H])NCCCCCCNC(=N)NC(=N)Nc1ccc(Cl)cc1)Nc1ccc(Cl)cc1 [CHLORHEXIDINE] | > 10 | 13 |  |  | > 10 | 21.9 |  | 4.34 | > 10 |  | 6.5 |  | 0.683 |  |
| Clc1cccc(Cl)c1N=C1NCCN1 [CLONIDINE] | > 30 | > 30 | > 30 | > 30 | > 10 |  |  |  |  | > 30 |  | > 10 | > 10 | > 30 |
| CN1C[C@H](C(=O)N[C@]2(C)O[C@@]3(O)[C@@H]4CCCN4C(=O)[C@H](Cc4ccccc4)N3C2=O)C[C@@H]2c3cccc4[nH]cc(c34)C[C@H]21 [DIHYDROERGOTAMINE] | 6.7 | > 30 | > 30 | > 30 | 0.358 |  |  |  |  | > 30 |  | > 10 | 0.0638 | > 30 |
| C#Cc1cccc(Nc2ncnc3cc(OCCOC)c(OCCOC)cc23)c1 [ERLOTINIB] | > 30 | 29 | > 10 | > 30 | > 30 | > 30 | > 30 | > 30 |  |  |  |  |  |  |
| CCC(=O)O[C@@H](O[P@](=O)(CCCCc1ccccc1)CC(=O)N1C[C@H](C2CCCCC2)C[C@H]1C(=O)O)C(C)C [FOSINOPRIL] | > 30 |  | > 30 |  | > 30 |  | > 30 | > 30 | > 30 |  |  |  |  |  |
| C[C@H]1Oc2cc(cnc2N)-c2c(nn(C)c2C#N)CN(C)C(=O)c2ccc(F)cc21 [LORLATINIB] | 16 | > 30 | > 30 | > 30 | > 30 | > 30 | > 30 | > 30 |  |  |  |  |  |  |
